Measured values published in US20180327367A1, “MACROCYCLIC BROAD SPECTRUM ANTIBIOTICS” (priority 2015, published 2018).
Values after ≈ are worked out from the molar mass of the structure shown. Like-named read-outs stand apart in the source and are kept apart here.

How the values were obtained:
Type in all cases: cell-based
[1] = system: Escherichia coli ATCC 25922; experiment: Minimum inhibitory concentration, broth micro-dilution (CLSI), E. coli; details: for MIC: Escherichia coli, ATCC25922, 22 h
Method: Cells were inoculated onto plates of Trypyticase Soy Agar or Luria Agar respectively and grown at 35° C. for 20 hours. Inocula suspensions were prepared by scraping cells into 1 mL of testing media (cation adjusted Mueller Hinton Broth supplemented with 0.002% v/v Tween-80) and diluting to a final OD600 nm of 0.01.
(§1) Test compounds were prepared in DMSO at a concentration of 10 mg/mL. […] In protocol 2, the compound stocks were diluted into testing media at a concentration of 4 μg/mL and serial 2-fold dilutions were made in the same media, in 96-well U bottom microtiter dishes, for a total of 10 compound concentrations. In protocol 3, compound stocks were diluted into testing media at a concentration of 0.5 μg/mL, with serial 2-fold dilutions conducted as described above. […] Inocula suspensions were added to the 2-fold serial dilutions of test compounds to a final density of OD OD600 nm of 0.0005 and incubated at 35° C. for 22 hours.

[2] = system: Methicillin Resistant Staphylococcus aureus strain USA 300, NRS384; experiment: Minimum inhibitory concentration, broth micro-dilution (CLSI), S. aureus; details: for MIC: Staphylococcus aureus, MRSA / NRS 384 / USA300, 22 h
Method: (§2) In vitro antimicrobial activity of each compound was determined by measuring minimal inhibitor concentrations (MICs) using the broth micro-dilution technique as approved by the Clinical and Laboratory Standards Institute (CLSI) (Methods for Dilution Antimicrobial Susceptibility Tests for Bacteria that Grow Aerobically; Approved Standard—Eighth Edition. CLSI document M07-A8. Wayne, Pa.: Clinical and Laboratory Standards; 2009). Antibacterial activity was measure against three strains of bacteria: a Methicillin Resistant Staphylococcus aureus strain USA 300, NRS384 (S. aureus); a strain of Escherichia coli MC4100 harboring the IMP4213 (E. coli IMP), which results in increased outer-membrane permeability (B Martin and Silhavy T. Imp/OstA is required for cell envelope biogenesis in Escherichia coli. (2002) Molecular Microbiology, 45(5), 1289-1302), and Escherichia coli ATCC 25922 (E. coli), a clinically relevant Gram-negative strain. Cells were inoculated onto plates of Trypyticase Soy Agar or Luria Agar respectively and grown at 35° C. for 20 hours. Inocula suspensions were prepared by scraping cells into 1 mL of testing media (cation adjusted Mueller Hinton Broth supplemented with 0.002% v/v Tween-80) and diluting to a final OD600 nm of 0.01.
as §1

[3] = system: Escherichia coli MC4100 harboring the IMP4213 (E. coli IMP); experiment: microbe, parasite or virus in culture; details: for MIC (μg/mL) E. coli IMP: E. coli MC4100 IMP4213, increased outer-membrane permeability; for MIC: Escherichia coli, 22 h
Method: as §2, §1

[4] = E. coli ATCC 25922, 35° C., 22 hours
[5] = MRSA USA 300 NRS384, 35° C., 22 hours
[6] = E. coli ATCC 25922, 35° C., 22 hours, read-out: MIC (μg/mL) E. coli
[7] = MRSA USA 300 NRS384, 35° C., 22 hours, read-out: MIC (μg/mL) S. aureus
[8] = read-out: MIC (μg/mL) E. coli IMP, E. coli MC4100 IMP4213, increased outer-membrane permeability, 35° C., 22 hours

Row | Structure (SMILES) | MIC (μg/mL) S. aureus [2, 5] [µg/mL] | MIC [1, 6] [µg/mL] | MIC [2, 7] [µg/mL] | MIC [3, 8] [µg/mL] | other results
1 | Cc1cc(C2CC2c2ccccc2)ccc1C(=O)N[C@@H](CCN)C(=O)N(C)[C@@H]1C(=O)N[C@@H](C)C(=O)N[C@H](C(=O)NCC#N)Cc2ccc(OCCN)c(c2)-c2cc1ccc2OCCN (mixture of isomers) [Compound 439] | 0.047 | – | – | – | MIC (μg/mL) E. coli [1, 4]: 0.5 µg/mL; MIC (μg/mL) E. coli IMP ([3]; 35° C., 22 hours): 0.0078 µg/mL
2 | CCCCc1ccc(NC(=O)CC(CCN)C(=O)N(C)[C@@H]2C(=O)N[C@@H](C)C(=O)N[C@H](C(=O)NCC#N)Cc3ccc(OCCN)c(c3)-c3cc2ccc3OCCN)c(C)c1 (mixture of isomers) [Compound 456] | – | 64 | 0.25 | 0.5 | –
3 | C[C@@H]1NC(=O)[C@@H](N(C)C(=O)[C@H](CCCCN)NC(=O)c2ccc(-c3ccc(Cl)cc3)cc2)c2ccc(OCC(O)CN)c(c2)-c2cc(ccc2OCC(O)CN)C[C@@H](C(=O)NCC#N)NC1=O (mixture of isomers) [Compound 515] | – | 4 | 0.094 | 0.063 | –
4 | CCCCCCCCCC(=O)N[C@H](C(=O)N[C@@H](CCN)C(=O)N(C)[C@@H]1C(=O)N[C@@H](C)C(=O)N[C@H](C(=O)NCC#N)Cc2ccc(OCCN)c(c2)-c2cc1ccc2OCCN)C(C)O (single isomer, unassigned) [Compound 357-P1] | – | – | – | 0.5 (≈ 0.56 µM) | MIC ([1]; read-out: MIC (μg/mL) E. coli, E. coli ATCC 25922, 35° C., 22 hours): 64 µg/mL (≈ 71.7 µM); MIC ([2]; read-out: MIC (μg/mL) S. aureus, MRSA USA 300 NRS384, 35° C., 22 hours): 0.5 µg/mL (≈ 0.56 µM)
5 | CCCCCCCc1ccc(C(=O)NC(CCNC)C(=O)N(C)[C@@H]2C(=O)N[C@@H](C)C(=O)N[C@H](C(=O)NCC#N)Cc3ccc(OCCN)c(c3)-c3cc2ccc3OCCN)c(C)c1 (single isomer, unassigned) [Compound 490-P1] | 0.073 (≈ 0.0841 µM) | – | – | 0.068 (≈ 0.0783 µM) | MIC (μg/mL) E. coli [1, 4]: 0.75 µg/mL (≈ 0.864 µM)
6 | CCCCCCCc1ccc(C(=O)NC(CCNC)C(=O)N(C)[C@@H]2C(=O)N[C@@H](C)C(=O)N[C@H](C(=O)NCC#N)Cc3ccc(OCCN)c(c3)-c3cc2ccc3OCCN)c(C)c1 (single isomer, unassigned) [Compound 490-P2] | >0.50 | – | – | – | MIC (μg/mL) E. coli [1, 4]: 8 µg/mL (≈ 9.22 µM); MIC (μg/mL) E. coli IMP ([3]; 35° C., 22 hours): >0.13 µg/mL
7 | CCCCCCCCCCCNC(=O)C(CCN)C(=O)N(C)[C@@H]1C(=O)N[C@@H](C)C(=O)N[C@H](C(=O)NCC#N)Cc2ccc(OCCN)c(c2)-c2cc1ccc2OCCN (single isomer, unassigned) [Compound 497-P1] | 0.063 (≈ 0.0768 µM) | – | – | – | MIC (μg/mL) E. coli [1, 4]: 2 µg/mL (≈ 2.44 µM); MIC (μg/mL) E. coli IMP ([3]; 35° C., 22 hours): 0.016 µg/mL (≈ 0.0195 µM)
8 | CCCCCCCCCCCNC(=O)C(CCN)C(=O)N(C)[C@@H]1C(=O)N[C@@H](C)C(=O)N[C@H](C(=O)NCC#N)Cc2ccc(OCCN)c(c2)-c2cc1ccc2OCCN (single isomer, unassigned) [Compound 497-P2] | 1 (≈ 1.22 µM) | – | – | – | MIC (μg/mL) E. coli [1, 4]: 24 µg/mL (≈ 29.3 µM); MIC (μg/mL) E. coli IMP ([3]; 35° C., 22 hours): 0.38 µg/mL (≈ 0.463 µM)
9 | CCCCCCc1ccc(C(=O)N2CCC(N)C[C@@H]2C(=O)N(C)[C@@H]2C(=O)N[C@@H](C)C(=O)N[C@H](C(=O)NCC#N)Cc3ccc(OCCN)c(c3)-c3cc2ccc3OCCN)c(C)c1 (single isomer, unassigned) [Compound 526-1] | – | 16 (≈ 18.5 µM) | 0.19 (≈ 0.219 µM) | 0.13 (≈ 0.15 µM) | –
10 | CCCCCCc1ccc(C(=O)N2CCC(N)C[C@H]2C(=O)N(C)[C@@H]2C(=O)N[C@@H](C)C(=O)N[C@H](C(=O)NCC#N)Cc3ccc(OCCN)c(c3)-c3cc2ccc3OCCN)c(C)c1 (single isomer, unassigned) [Compound 526-2] | >0.5 | – | – | – | MIC (μg/mL) E. coli [1, 4]: 64 µg/mL (≈ 73.9 µM); MIC (μg/mL) E. coli IMP ([3]; 35° C., 22 hours): >0.13 µg/mL
11 | C[C@@H]1NC(=O)[C@@H](N(C)C(=O)[C@H](CCN)NC(=O)c2ccc3c(c2)CCCC3)c2ccc(OCCN)c(c2)-c2cc(ccc2OCCN)C[C@@H](C(=O)NCC#N)NC1=O [Compound 119] | – | 16 (≈ 20.1 µM) | 1 (≈ 1.26 µM) | 0.25 (≈ 0.314 µM) | –
12 | C[C@@H]1NC(=O)[C@@H](N(C)C(=O)[C@H](CCN)NC(=O)c2ccc3ccccc3c2)c2ccc(OCCN)c(c2)-c2cc(ccc2OCCN)C[C@@H](C(=O)NCC#N)NC1=O [Compound 125] | – | 16 (≈ 20.2 µM) | 2 (≈ 2.53 µM) | 0.25 (≈ 0.316 µM) | –
13 | C[C@@H]1NC(=O)[C@@H](N(C)C(=O)[C@H](CCN)NC(=O)CCCC2CCCCC2)c2ccc(OCCN)c(c2)-c2cc(ccc2OCCN)C[C@@H](C(=O)NCC#N)NC1=O [Compound 126] | – | 32 (≈ 40.5 µM) | 0.5 (≈ 0.633 µM) | 0.25 (≈ 0.316 µM) | –
14 | Cc1ccc(C(=O)N[C@@H](CCN)C(=O)N(C)[C@@H]2C(=O)N[C@@H](C)C(=O)N[C@H](C(=O)NCC#N)Cc3ccc(OCCN)c(c3)-c3cc2ccc3OCCN)c(C)c1 [Compound 128] | – | 16 (≈ 20.8 µM) | 4 (≈ 5.2 µM) | 0.5 (≈ 0.649 µM) | –
15 | CCc1ccc(-c2ccc(C(=O)N[C@@H](CCCN)C(=O)N(C)[C@@H]3C(=O)N[C@@H](C)C(=O)N[C@H](C(=O)NCC#N)Cc4ccc(OCCN)c(c4)-c4cc3ccc4OCCN)c(C)c2)cc1 [Compound 152] | – | 0.63 (≈ 0.721 µM) | 0.031 (≈ 0.0355 µM) | 0.014 (≈ 0.016 µM) | –
16 | Cc1nc(-c2ccc(C(C)(C)C)cc2)ncc1C(=O)N[C@@H](CCCN)C(=O)N(C)[C@@H]1C(=O)N[C@@H](C)C(=O)N[C@H](C(=O)NCC#N)Cc2ccc(OCCN)c(c2)-c2cc1ccc2OCCN [Compound 153] | – | – | – | – | MIC ([1]; read-out: MIC (μg/mL) E. coli): 0.19 µg/mL (≈ 0.21 µM); MIC ([2]; read-out: MIC (μg/mL) S. aureus): 0.023 µg/mL (≈ 0.0254 µM); MIC ([3]; read-out: MIC (μg/mL) E. coli IMP): 0.0059 µg/mL (≈ 0.00653 µM)
17 | CCCCc1ccc(-c2ncc(C(=O)N[C@@H](CCCN)C(=O)N(C)[C@@H]3C(=O)N[C@@H](C)C(=O)N[C@H](C(=O)NCC#N)Cc4ccc(OCCN)c(c4)-c4cc3ccc4OCCN)c(C)n2)cc1 [Compound 154] | – | 0.25 (≈ 0.277 µM) | 0.012 (≈ 0.0133 µM) | 0.0059 (≈ 0.00653 µM) | –
18 | CCCCc1ccc(-c2ncc(C(=O)N[C@@H](CCN)C(=O)N(C)[C@@H]3C(=O)N[C@@H](C)C(=O)N[C@H](C(=O)NCC#N)Cc4ccc(OCCN)c(c4)-c4cc3ccc4OCCN)c(C)n2)cc1 [Compound 156] | – | 0.063 (≈ 0.0708 µM) | 0.016 (≈ 0.018 µM) | 0.0044 (≈ 0.00494 µM) | –
19 | Cc1nc(-c2ccc(-c3ccccc3)cc2)ncc1C(=O)N[C@@H](CCN)C(=O)N(C)[C@@H]1C(=O)N[C@@H](C)C(=O)N[C@H](C(=O)NCC#N)Cc2ccc(OCCN)c(c2)-c2cc1ccc2OCCN [Compound 158] | – | 0.11 (≈ 0.121 µM) | 0.031 (≈ 0.0341 µM) | 0.002 (≈ 0.0022 µM) | –
20 | CCCc1ccc(-c2ncc(C(=O)N[C@@H](CCN)C(=O)N(C)[C@@H]3C(=O)N[C@@H](C)C(=O)N[C@H](C(=O)NCC#N)Cc4ccc(OCCN)c(c4)-c4cc3ccc4OCCN)c(C)n2)cc1 [Compound 161] | – | 0.13 (≈ 0.148 µM) | 0.031 (≈ 0.0354 µM) | 0.003 (≈ 0.00342 µM) | –
21 | C[C@@H]1NC(=O)[C@@H](N(C)C(=O)[C@H](CCN)NC(=O)c2cccc3ccccc23)c2ccc(OCCN)c(c2)-c2cc(ccc2OCCN)C[C@@H](C(=O)NCC#N)NC1=O [Compound 492] | 3 (≈ 3.79 µM) | – | 2 (≈ 2.53 µM) | – | –
